Test results taken from patent US20240254095A1, “NMDA Receptor Antagonist and Use Thereof” (priority 2021, published 2024).
Entries after “also recorded” stand apart in the source; their conditions may differ. Counter-ions that a name gives are not always drawn. Like-named read-outs stand apart in the source and are kept apart here.

Legend:
[1] = test system: mice; experiment: High dose toxicity test (behavior of mice after i.p. administration); assay type: in vivo; parameters: key to Rodent Epileptiform Behavior Scale score (maximum): 0: No abnormal behavior; 1: Unsteady walking/reduced exercise ability/immobility; 2: Generalized clonus/trembling/writhing; 3: The tail is stiff/swinging; 4: Forelimb contractures; 5: Generalized spasms/convulsions; 6: Startle or running convulsive seizures; 7: Generalized tonic-clonic seizures; 8: dead; conditions: for behavior during observation: observed about one hour; for Rodent Epileptiform Behavior Scale score (maximum): scale 0-8
Experimental: • 1. Experiments were performed in a quiet environment where animals needed to be weighed and acclimatized in the laboratory room for at least 30 min before the experiment. • 2. The compound to be tested was dissolved with 0.9% physiological saline at a concentration of 10 mg/ml. According to the body weight of mice, a corresponding volume of the compound was intraperitoneal injected (i.p.), so as to provide the target dose. • 3. The mice after administration were placed in transparent observation boxes, and the behavioral changes of the mice were recorded by video and observed for about one hour. (Note: During the observation period, if a mouse was lying still on the stomach, the mouse was turned over with your hand to check whether the righting reflex (RR) of the mouse disappeared. If it disappeared, the mouse was in the state of anesthesia, the time of anesthesia in the mouse was recorded). • 4. After one hour of observation, the mice were returned to the feeding cage and the observation boxes were wiped with 75% alcohol so that the information left over from the previous round (e.g. animal stool, urine and other odors) would not affect the next test results. Animals were replaced for the next round to continue the experiment.
Mice died after ketamine administration.
According to Rodent Epileptiform Behavior Scale score, Compound 9 induced epileptiform behavior in mice with a maximum score of 3. […] According to the Rodent Epileptiform Behavior Scale score. Compound 41 and 42 induced epileptiform behavior in mice with a maximum score of 1. […] The epileptiform behavior was scored according to the Rodent Epileptiform Behavior Scale score.

[2] = target: T1, human NMDA receptors GluN1 and GluN2A subunits (GluN2A-containing NMDAR) (Homo sapiens, UniProt Q05586+Q12879); experiment: cell-based
T1 construct: expressed in transfected cells; host or cells: HEK293 cells, transient liposome transfection of TRE-GluN1-GluN2A, tTA and pCAG-EGFP
Experimental: On the day before transfection, HEK293 cells were seeded in a 24-well plate with a 10 mm glass sheet, which was coated with polylysine in advance to increase the adhesion capacity of the cells. The plate was added with DMEM medium containing 10% FBS and incubated at 37° C., in 5% CO2 incubator. When the cell fusion reached 60%-70% after 18-24 hours, the plasmid cDNAs containing TRE-GluN1-GluN2A of human GluN1 and GluN2A, tTA, and pCAG-EGFP were transfected into HEK293 by liposome transfection (TRE-GluN1-GluN2A:tTA:pCAG-EGFP is 0.2 μg:0.2 μg:0.02 μg). Before transfection, anew DMEM medium was changed and added with 1 μg/mL Dox (doxycycline) to induce stable expression in the medium, and added with 100 μM D-APV and 10 mM MgCl2 to avoid cell excitatory toxicity caused by NMDAR overexpression. Cells with green fluorescence were selected for electrophysiological recording after transfection for about 24 h.
A glass plate seeded with HEK293 cells was placed in a recording bath and perfused with the extracellular fluid at a rate of 4 mL/min (NaCl 140 mM, KCl 2.8 mM, HEPES 10 mM, CaCl2 1 mM, glycine 0.1 mM, pH 7.2). The channels of the ALA-VC^3 eight-channel pressure perfusion system were filled with extracellular fluid for washing, extracellular fluid containing glutamic acid (100 μM), and extracellular fluid containing glutamic acid and compound to be tested, respectively, with a drop rate of about 1 drop/sec and 10 μL/drop. HEK293 cells with moderate green fluorescence intensity and good adhesion were selected under a fluorescence microscope for recording. The microglass tube of the perfusion system was placed about ten cells away from the cells to be recorded, and the drug was sprayed to the cell surface under the pressure of air (0.02 MPa). The glass electrode was prepared by drawing with a microelectrode drawing instrument with a resistance of 4-6 MΩ and filled with electrode liquid (CsCl 125 mM, HEPES 10 mM, EGTA 11 mM). The microelectrode manipulator was used to slowly push the glass electrode towards the cells. The electrode was attached to the cell membranes and applied with negative pressure, so that a high-resistance seal of more than 1 GΩ was formed between the electrode tip and the cell membrane, and then negative pressure was given to suck through the cell membrane to form a whole-cell recording mode. After the formation of whole-cell recording mode, the cell membrane potential was clamped at −70 mV. The extracellular fluid containing 100 μM glutamic acid, the extracellular fluid containing 100 μM glutamic acid and the compound to be tested, and the extracellular fluid were sprayed to the cell membrane surface sequentially through the perfusion system for 10 s, 20 s, and 10 s to record the NMDA receptor-mediated current and evaluate the inhibitory effect of the compound on GluN2A-containing NMDAR. The experimental process was controlled by pCLAMP 10.6, and the Digidata 1440A digital-to-analog converter was used to complete the generation of stimulus signal and the acquisition of feedback signal.
The ordinate in the figure is the normalized current ratio, which represents the ratio of the current mediated by NMDAR after administration of ketamine and the compound at a concentration of 10 μM to the current mediated by NMDAR before administration. […] Ketamine was used as a positive control.
The inhibitory percentages of the compound according to the present disclosure on NMDAR-mediated current=[…]/NMDAR mediated-current before administration*100%.

[3] = high dose 150 mg/kg bw, formate, 150 mg/kg
[4] = medium dose 100 mg/kg body weight, formate, 100 mg/kg
[5] = medium dose 100 mg/kg body weight
[6] = NMDAR-mediated current, HEK293 cells expressing human GluN1/GluN2A, 100 μM glutamic acid, clamped at −70 mV, compound 10 μM, read-out: current inhibitory percentages
[7] = medium dose 100 mg/kg body weight, hydrochloride, 100 mg/kg

T1 sequence (Q12879 23-1464, other chains not shown): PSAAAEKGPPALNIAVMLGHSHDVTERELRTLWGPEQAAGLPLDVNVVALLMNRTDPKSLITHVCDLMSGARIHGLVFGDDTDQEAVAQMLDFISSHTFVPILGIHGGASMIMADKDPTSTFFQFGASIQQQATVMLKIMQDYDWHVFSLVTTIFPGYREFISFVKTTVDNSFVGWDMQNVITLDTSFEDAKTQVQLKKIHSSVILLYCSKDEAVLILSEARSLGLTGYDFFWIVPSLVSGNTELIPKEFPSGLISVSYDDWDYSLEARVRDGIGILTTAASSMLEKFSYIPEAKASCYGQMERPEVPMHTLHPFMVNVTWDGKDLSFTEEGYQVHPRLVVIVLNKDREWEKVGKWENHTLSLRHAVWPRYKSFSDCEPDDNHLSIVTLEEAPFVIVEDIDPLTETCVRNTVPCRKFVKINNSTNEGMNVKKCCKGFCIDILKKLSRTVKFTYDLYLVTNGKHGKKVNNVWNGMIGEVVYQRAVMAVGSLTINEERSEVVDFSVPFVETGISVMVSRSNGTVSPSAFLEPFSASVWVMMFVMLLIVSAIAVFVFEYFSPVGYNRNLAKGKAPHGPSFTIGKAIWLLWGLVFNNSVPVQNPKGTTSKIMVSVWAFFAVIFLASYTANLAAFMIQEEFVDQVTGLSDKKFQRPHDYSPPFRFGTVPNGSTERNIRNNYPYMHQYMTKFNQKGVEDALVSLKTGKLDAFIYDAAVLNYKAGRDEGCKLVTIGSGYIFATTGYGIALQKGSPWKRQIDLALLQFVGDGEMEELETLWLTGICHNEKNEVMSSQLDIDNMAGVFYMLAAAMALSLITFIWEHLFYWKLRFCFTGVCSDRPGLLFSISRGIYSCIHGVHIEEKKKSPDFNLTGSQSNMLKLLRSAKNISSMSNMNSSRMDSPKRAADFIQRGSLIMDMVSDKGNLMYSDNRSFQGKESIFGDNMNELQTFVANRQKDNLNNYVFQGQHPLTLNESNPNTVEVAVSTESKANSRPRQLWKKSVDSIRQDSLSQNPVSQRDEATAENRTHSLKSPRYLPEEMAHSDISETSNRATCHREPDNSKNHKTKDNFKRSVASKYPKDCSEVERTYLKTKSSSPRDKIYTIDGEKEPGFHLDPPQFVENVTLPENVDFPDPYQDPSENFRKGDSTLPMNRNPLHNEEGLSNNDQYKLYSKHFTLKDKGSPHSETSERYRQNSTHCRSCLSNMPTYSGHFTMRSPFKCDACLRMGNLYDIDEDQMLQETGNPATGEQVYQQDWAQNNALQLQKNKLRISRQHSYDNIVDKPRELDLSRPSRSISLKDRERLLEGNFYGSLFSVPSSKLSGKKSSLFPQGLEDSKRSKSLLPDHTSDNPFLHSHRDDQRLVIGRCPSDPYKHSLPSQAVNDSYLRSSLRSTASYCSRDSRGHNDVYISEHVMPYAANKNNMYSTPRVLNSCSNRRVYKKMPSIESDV

| Compound | behavior during observation [1, 3] | behavior during observation [1, 4] | Rodent Epileptiform Behavior Scale score (maximum) [1, 5] | inhibition at 10 µM [2, 6] | behavior during observation [1, 7] | also measured |
| --- | --- | --- | --- | --- | --- | --- |
| Clc1cccc(C23CCCCC2OCCN3)c1 (racemic) [Compound 9, 4a-(3-chlorophenyl)octahydro-2H-benzo[b][1,4]oxazine formate] | the state of anesthesia of mice returned to normal after half an hour; also recorded: the state of anesthesia lasted for half an hour | intermittent shaky waking, lying still on the stomach, and tail stiffness (seizure for about 10 seconds); also recorded: Moderate epilepsy | 3 | 88.8% |  |  |
| Clc1ccccc1C12CCCCC1OCCN2 (racemic) [Compound 11, 4a-(2-chlorophenyl)octahydro-2H-benzo[b][1,4]oxazine formate] | the activity reduction in mice lasted for half an hour before returning to normal | decreased activity; also recorded: Mild epilepsy | 1 | 85% |  |  |
| Clc1cccc([C@]23CCCC[C@H]2OCCN3)c1 [Compound 41, (4aR,8aR)-4a-(3-chlorophenyl)octahydro-2H-benzo[b][1,4]oxazine hydrochloride] |  |  |  | 92.9% | slightly shaky walking; also recorded: Slight shaking |  |
| Clc1cccc([C@@]23CCCC[C@@H]2OCCN3)c1 [Compound 42, (4aS,8aS)-4a-(3-chlorophenyl)octahydro-2H-benzo[b][1,4]oxazine hydrochloride] |  |  |  | 105% | slightly shaky walking; also recorded: Slight shaking |  |
| Clc1ccccc1[C@@]12CCCC[C@@H]1OCCN2 [Compound 44, (4aS,8aS)-4a-(2-chlorophenyl)octahydro-2H-benzo[b][1,4]oxazine hydrochloride] |  |  |  |  | no obvious abnormalities; also recorded: No abnormal |  |
| CNC1(c2ccccc2Cl)CCCCC1=O (stereo not shown) [Ketamine, reference compound] |  |  |  |  |  | behavior during observation ([1]; high dose 150 mg/kg bw, 150 mg/kg): dead; behavior during observation ([1]; high dose 150 mg/kg bw, listed as ketamine, 150 mg/kg): Mice died; inhibition at 10 µM ([2]; HEK293, read-out: current inhibitory percentages): 102% |
